Measurements reported in ChEMBL document CHEMBL1201862, “PubChem BioAssay data set” (2004).
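Test compounds were applied to cells in 96-well plates for 48 hours at 5 doses. GI50 is the concentration that inhibits growth by half.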 The source made the active and inactive calls. Cut-off read from the data, not from the text of the source: active = GI50 up to about 1.1 µM and inactive = higher.

Columns and labels:
Test in all cases: NCI anticancer screen, dose series, 48 h
[1] = system: SR
[2] = system: U-251
[3] = system: PC-3
[4] = system: KM12
[5] = system: MDA-MB-231
[6] = system: NCI-H226
[7] = system: SNB-19
[8] = system: HT-29
[9] = system: HCC 2998
[10] = system: SF-268
[11] = system: CCRF-CEM
[12] = system: SK-OV-3
[13] = system: NCI-H460
[14] = system: NCI/ADR-RES
[15] = system: SF-539
[16] = system: MOLT-4
[17] = system: ACHN
[18] = system: MDA-MB-435
[19] = system: CAKI-1
[20] = system: HCT-116
[21] = system: Hs-578T
[22] = system: TK-10
[23] = system: EKVX
[24] = system: SK-MEL-5
[25] = system: RXF 393
[26] = system: OVCAR-4
[27] = system: RPMI-8226
[28] = system: SK-MEL-28
[29] = system: SW-620
[30] = system: A498
[31] = system: Malme-3M
[32] = system: OVCAR-5
[33] = system: HOP-92
[34] = system: SK-MEL-2
[35] = system: MCF7
[36] = system: NCI-H23
[37] = system: SF-295
[38] = system: SNB-75
[39] = system: K562
[40] = system: BT-549
[41] = system: OVCAR-3
[42] = system: A549
[43] = system: OVCAR-8
[44] = system: T47D
[45] = system: HL-60
[46] = system: HOP-62
[47] = system: MDA-N
[48] = system: HCT-15
[49] = system: UO-31
[50] = system: UACC-257
[51] = system: DU-145
[52] = system: COLO 205
[53] = system: 786-0
[54] = system: IGROV-1
[55] = system: LOX IMVI
[56] = system: SN12C
[57] = system: M14
[58] = system: NCI-H522
[59] = system: UACC-62

CC(=O)OC(C)(C)/N=N/c1ccc(Br)cc1
GI50 [1]: 0.475 µM (active)
GI50 [2]: 25.1 µM (inactive)
GI50 [3]: 24.3 µM (inactive)
GI50 [4]: 5.79 µM (inactive)
GI50 [5]: > 76.2 µM (inactive)
GI50 [6]: 2.96 µM (inactive)
GI50 [7]: > 68.2 µM (inactive)
GI50 [8]: 0.975 µM (active)
GI50 [9]: 16.6 µM (inactive)
GI50 [10]: 17.4 µM (inactive)
GI50 [11]: 10.2 µM (inactive)
GI50 [12]: > 33.9 µM (inactive)
GI50 [13]: 0.946 µM (active)
GI50 [14]: 14.4 µM (inactive)
GI50 [15]: 0.841 µM (active)
GI50 [16]: 3.56 µM (inactive)
GI50 [17]: 1.33 µM (inactive)
GI50 [18]: 1.08 µM (active)
GI50 [19]: 16.7 µM (inactive)
GI50 [20]: 0.851 µM (active)
GI50 [21]: > 53.2 µM (inactive)
GI50 [22]: 23.7 µM (inactive)
GI50 [23]: 9.38 µM (inactive)
GI50 [24]: 0.209 µM (active)
GI50 [25]: 20.6 µM (inactive)
GI50 [26]: 9.18 µM (inactive)
GI50 [27]: 0.942 µM (active)
GI50 [28]: 3.01 µM (inactive)
GI50 [29]: 48.2 µM (inactive)
GI50 [30]: > 87.5 µM (inactive)
GI50 [31]: > 43.1 µM (inactive)
GI50 [32]: 1.66 µM (inactive)
GI50 [33]: 23.7 µM (inactive)
GI50 [34]: > 85.7 µM (inactive)
GI50 [35]: 0.551 µM (active)
GI50 [36]: 25.8 µM (inactive)
GI50 [37]: 0.153 µM (active)
GI50 [38]: > 53.5 µM (inactive)
GI50 [39]: 0.0596 µM (active)
GI50 [40]: 97.7 µM (inactive)
GI50 [41]: 13.6 µM (inactive)
GI50 [42]: 6.04 µM (inactive)
GI50 [43]: 17.5 µM (inactive)
GI50 [44]: 1.09 µM (active)
GI50 [45]: 0.653 µM (active)
GI50 [46]: 34.3 µM (inactive)
GI50 [47]: 0.178 µM (active)
GI50 [48]: 0.977 µM
GI50 [49]: 0.425 µM (active)
GI50 [50]: 5.45 µM (inactive)
GI50 [51]: 54.2 µM (inactive)
GI50 [52]: 0.52 µM (active)
GI50 [53]: 22.9 µM (inactive)
GI50 [54]: 18.7 µM (inactive)
GI50 [55]: 3.09 µM (inactive)
GI50 [56]: 32.7 µM (inactive)
GI50 [57]: 0.277 µM (active)
GI50 [58]: 9.4 µM (inactive)
GI50 [59]: 0.052 µM (active)

COC(=O)C1=CC2CCCC1(O)C(C(C)=O)C2 (configuration not stated)
GI50 [1]: 31.3 µM (inactive)
GI50 [2]: 63.2 µM (inactive)
GI50 [3]: 61.2 µM (inactive)
GI50 [4]: > 81.1 µM (inactive)
GI50 [5]: 46.6 µM (inactive)
GI50 [6]: > 100 µM (inactive)
GI50 [7]: > 100 µM (inactive)
GI50 [8]: > 100 µM (inactive)
GI50 [9]: > 100 µM (inactive)
GI50 [10]: > 21.7 µM (inactive)
GI50 [11]: 21.1 µM (inactive)
GI50 [12]: > 100 µM (inactive)
GI50 [13]: > 85.1 µM (inactive)
GI50 [14]: > 63.2 µM (inactive)
GI50 [15]: 11.6 µM (inactive)
GI50 [16]: 21.1 µM (inactive)
GI50 [17]: > 100 µM (inactive)
GI50 [18]: > 100 µM (inactive)
GI50 [19]: > 100 µM (inactive)
GI50 [20]: 62.1 µM (inactive)
GI50 [21]: > 100 µM (inactive)
GI50 [22]: > 100 µM (inactive)
GI50 [23]: 52.7 µM (inactive)
GI50 [24]: > 100 µM (inactive)
GI50 [25]: > 70.1 µM (inactive)
GI50 [26]: > 62.7 µM (inactive)
GI50 [27]: 25.1 µM (inactive)
GI50 [28]: > 100 µM (inactive)
GI50 [29]: > 61.8 µM (inactive)
GI50 [30]: > 100 µM (inactive)
GI50 [31]: > 100 µM (inactive)
GI50 [32]: > 100 µM (inactive)
GI50 [33]: 41.4 µM (inactive)
GI50 [34]: > 68.7 µM (inactive)
GI50 [35]: > 79.6 µM (inactive)
GI50 [36]: > 77.1 µM (inactive)
GI50 [37]: > 67.5 µM (inactive)
GI50 [38]: 24.4 µM (inactive)
GI50 [39]: 34 µM (inactive)
GI50 [40]: > 95.7 µM (inactive)
GI50 [41]: > 100 µM (inactive)
GI50 [42]: 51.9 µM (inactive)
GI50 [43]: 44.4 µM (inactive)
GI50 [44]: 27.4 µM (inactive)
GI50 [45]: 24.2 µM (inactive)
GI50 [46]: > 75 µM (inactive)
GI50 [47]: 97.9 µM (inactive)
GI50 [48]: > 66.5 µM
GI50 [49]: 17.3 µM (inactive)
GI50 [50]: > 100 µM (inactive)
GI50 [51]: > 69.7 µM (inactive)
GI50 [52]: 39.8 µM (inactive)
GI50 [53]: 20.2 µM (inactive)
GI50 [54]: 15.4 µM (inactive)
GI50 [55]: 16.6 µM (inactive)
GI50 [56]: > 100 µM (inactive)
GI50 [57]: > 100 µM (inactive)
GI50 [58]: 15.5 µM (inactive)
GI50 [59]: > 94.4 µM (inactive)

O=c1[nH]/c(=C/c2ccc(OCc3ccccc3)cn2)c(=O)[nH]/c1=C/c1ccc(O)cc1
GI50 [1]: 1.4 µM (inactive)
GI50 [2]: 0.719 µM (active)
GI50 [3]: 1.13 µM (inactive)
GI50 [4]: 1.23 µM (inactive)
GI50 [5]: 1.6 µM (inactive)
GI50 [6]: 51.4 µM (inactive)
GI50 [7]: 2.15 µM (inactive)
GI50 [8]: 1.48 µM (inactive)
GI50 [9]: 0.991 µM (active)
GI50 [10]: 1.04 µM (active)
GI50 [11]: 0.0454 µM (active)
GI50 [12]: 4.99 µM (inactive)
GI50 [13]: 1.41 µM (inactive)
GI50 [14]: 0.774 µM (active)
GI50 [15]: 0.461 µM (active)
GI50 [16]: 0.301 µM (active)
GI50 [17]: 1.67 µM (inactive)
GI50 [18]: 0.109 µM (active)
GI50 [19]: 0.834 µM (active)
GI50 [20]: 1.08 µM (active)
GI50 [21]: 1.67 µM (inactive)
GI50 [22]: 0.931 µM (active)
GI50 [23]: 2.71 µM (inactive)
GI50 [24]: 2.07 µM (inactive)
GI50 [25]: 0.865 µM (active)
GI50 [26]: 0.219 µM (active)
GI50 [27]: 0.766 µM (active)
GI50 [28]: 1.79 µM (inactive)
GI50 [29]: 0.537 µM (active)
GI50 [30]: > 37.2 µM (inactive)
GI50 [31]: 2.34 µM (inactive)
GI50 [32]: 8.32 µM (inactive)
GI50 [33]: 11.6 µM (inactive)
GI50 [34]: 1.33 µM (inactive)
GI50 [35]: 1 µM (active)
GI50 [36]: 1.16 µM (inactive)
GI50 [37]: 8.85 µM (inactive)
GI50 [38]: 0.762 µM (active)
GI50 [39]: 0.859 µM (active)
GI50 [40]: 2.49 µM (inactive)
GI50 [41]: 1.27 µM (inactive)
GI50 [42]: 3.05 µM (inactive)
GI50 [43]: 0.877 µM (active)
GI50 [44]: 1.76 µM (inactive)
GI50 [45]: 0.298 µM (active)
GI50 [46]: 1.88 µM (inactive)
GI50 [47]: 0.129 µM (active)
GI50 [48]: 0.501 µM
GI50 [49]: 0.622 µM (active)
GI50 [50]: 2.56 µM (inactive)
GI50 [51]: 0.984 µM (active)
GI50 [52]: 1.45 µM (inactive)
GI50 [53]: 0.612 µM (active)
GI50 [54]: 0.764 µM (active)
GI50 [55]: 0.507 µM (active)
GI50 [56]: 1.04 µM (active)
GI50 [57]: 0.94 µM (active)
GI50 [58]: 0.276 µM (active)
GI50 [59]: 1.58 µM (inactive)
